Experimental data taken from article PMC7217877, “N-AS-triggered SPMs are direct regulators of microglia in a model of Alzheimer’s disease” (Nature Communications, 2020).

Legend:
[1] = stability (isomerization) of acetyl sphingosine isomers in phosphate buffer pH 7.4 (LC-ELSD); format: physicochemical
Procedure: To a solution of 1-O-AS (0.25 mg) or 3-O-AS (0.25 mg) in water (400 μl) and DMSO (50 μl) at RT was added sodium phosphate buffer (pH 7.4, 0.1 M, 50 μl). The solution was mixed homogeneously with micropipette and was incubated at 25 °C for 10 min. Reverse-phase HPLC was performed using Agilent 1220 coupled with Agilent 1260 Infinity ELSD. Phenomenex Kinetex 1.7 μm C8 100 A ([…] LC column) at a flow rate of 0.5 ml min^−1 was used. A gradient of acetonitrile with 0.1% formic acid was used as an eluent.

COX2 = test: SphK1-mediated COX2 acetylation with [14C] acetyl-CoA (ATP competition, SphK1 mutants; Supplementary Fig 1h,i); format: biochemical, human; details: ATP 0-1000 µM as competitor of acetyl-CoA
Text: Single point mutations in SphK1 (R56A, R57A, R24A, R185A, D178A, and F192A) and COX2 (S565A, N181A, T564A, and S567A) were generated using the In-Fusion Cloning Kits (Clontech) and ORF cDNA expression plasmids of human SphK1 and COX2 gene (Sino Biological Inc, HG15679-NH and HG12036-NH), according to the manufacturer’s instructions. The forward and reverse primers described in Supplementary Table 4. The SphK1 WT, SphK1 mutants, COX2 WT, and COX2 mutant plasmids were transformed in the One shot TOP 10 competent cell (Invitrogen). The bacteria were grown in Luria-Bertani (LB, Invitrogen) plates supplemented with 50 μg ml^−1 kanamycin (Sigma-Aldrich) at 37 °C. The bacterial cell pellets were resuspended in lysis buffer containing 20 mM sodium phosphate (GE Healthcare), 500 mM NaCl (GE Healthcare), 20 mM imidazole (pH 7.4) (GE Healthcare), 0.2 mg ml^−1 lysozyme (Sigma-Aldrich), 20 μg ml^−1 DNase I (Roche), 1 mM MgCl2 (Sigma-Aldrich), and 1 mM PMSF (Sigma-Aldrich) before being lysed by sonication and clarified by centrifugation at 15,493×g for 10 min. Proteins were purified from the soluble fraction using His-Spin Trap columns (GE Healthcare) and the binding and acetylation assays were performed.
Acetylation assays were performed according to previously described procedures with minor modifications. […] N-AS (2 μCi, ARC UK Ltd, ARC-1024) at 37 °C for 2 h. [^14C] aspirin (2 μCi, ARC UK Ltd, ARC-0473) was conducted as the positive control. The reactions were terminated by placing the reaction tubes in ice for 5 min. To evaluate in vivo neuronal and microglial COX2 acetylation, 10 μCi [^14C] N-AS was orally administrated to 9-months-old WT and APP/PS1 mice. After 1 h, neuron and microglia were isolated and sonicated in culture media. To immunoprecipitate acetylated COX2, the sample was incubated with COX2 antibody (Abcam, ab15191) at 4 °C for 24 h and precipitated by adding 50 μl of protein-A sepharose (GE Healthcare). Acetylated COX2 proteins bound to the beads were analyzed using a Tri-Carb 3110TR liquid scintillation counter (Perkin-Elmer).

[2] = tested on: immortalized human microglia; test: LM-SPM profile of human microglia (LC-MS/MS, Supplementary Table 3, Fig 6d); format: cell-based
[3] = tested on: immortalized human microglia; test: ac-S565 COX2 in human microglia (western blot, immunofluorescence, Supplementary Fig 6b,c); format: cell-based; details: zileuton with N-AS in Aβ-treated human microglia vs without zileuton
Procedure: To confirm the generation and roles of N-AS in neurons, cells from E18 C57BL/6 mice were prepared as previously described. Cortices were dissected and then dissociated followed by incubation in papain (Worthington) at 37 °C for 15 min. Neurons were plated on poly-L-lysine-coated coverslips with neuronal culture medium, serum-free Neurobasal medium (Gibco) containing 2% B27 supplements (Gibco), 1 mM Glutamax supplement (Gibco), and 100 U ml^−1 streptomycin/ 100 U ml^−1 penicillin (Gibco) at 37 °C in a humidified atmosphere of 5% CO2. Aβ 1–42 (10 μM, 24 h, Invitrogen, 03112) was exposed to neurons and the cells were analyzed for the generation and roles of N-AS. Primary astrocyte cultures were prepared from C57BL/6 mice as described previously. In brief, after removal of the meninges, postnatal day 7 (P7) mouse brain tissues were minced and incubated in a rocking water bath at 37 °C for 30 min in the presence of 0.25% trypsin-EDTA (Sigma-Aldrich). Enzyme-digested dissociated cells were triturated with astrocyte-specific medium (DMEM/F12 containing 10% FBS and 1% penicillin-streptomycin) and centrifuged at 155×g for 8 min. The pellet was resuspended in astrocyte-specific medium and passed through a 40-μm cell strainer. The filtrate was allowed pre-adherence for 30 min to remove any contamination from fibroblasts before being seeded in dishes and the addition of astrocyte-specific medium. To split the cells, Ara-C was added to the dishes and they were then placed in a heated shaker for 6–7 h. The medium was removed from the dishes, and trypsin-EDTA was added to the dish and incubated at 37 °C for 5–10 min. After centrifugation at 155×g for 8 min, the supernatant was removed, and the astrocytes were maintained in culture by feeding […] with astrocyte-specific medium. Primary microglia cultures were prepared from C57BL/6 mice as described previously. In brief, the cortices of 2-months-old mice were minced in Hibernate A (Gibco)/B27 supplements (Gibco) medium and dissociated using papain (Worthington) solution. After tissue trituration, cells were separated by Optiprep (Sigma-Aldrich) density gradient centrifugation. Microglia were plated with microglia-specific medium (DMEM/F12 containing 10% FBS and 1% penicillin-streptomycin). The immortalized human microglia (Applied Biologics Materials, T0251) were cultured in PriGrow III (Applied Biologics Materials, TM003) (supplemented with 10% FBS and 1% penicillin-streptomycin) at 37 °C in a humidified atmosphere of 5% CO2. […] The human microglia treated with Aβ 1–42 and/or zileuton was incubated with N-AS (2.5 μM, 2 h, Sigma-Aldrich, 01912), and were analyzed for the generation and roles of N-AS.
Thioflavin S (Sigma-Aldrich) staining was carried out according to previously described procedures. We used 6E10 (mouse, 1:100, Signet, SIG39300), anti-20G10 (mouse, 1:1000, provided by D. R. Howlett, GlaxoSmithKline, Harlow, Essex, UK) for Aβ42, anti-G30 (rabbit, 1:1000, provided by D. R. Howlett) for Aβ40, SMA (mouse, 1:400, Sigma-Aldrich, A2547), AT8 (mouse, 1:500, Thermo Fisher Scientific, MN1020), Caspase-3 (mouse, 1:200, Novus Biologicals, NB100-56708), ac-S565 (rabbit, 1:100), COX2 (mouse, 1:250, Thermo Fisher Scientific, 35-8200), Iba1 (rabbit, 1:500, Wako, 019-19941 and goat, Abcam, ab5076), NeuN (mouse, 1:500, Millipore, MAB177), GFAP (rabbit, 1:500, Dako, N1506 and chicken, 1:500, Abcam, ab4674), and Lamp1 (mouse, 1:200, Abcam, ab24170). The sections were analyzed with a laser-scanning confocal microscope (FV3000; Olympus) or with a BX51 microscope (Olympus). MetaMorph software (Molecular Devices) was used to quantification. Three-dimensional reconstruction of microglia was recorded and analyzed using IMARIS software (Bitplane)[11]. […]

[4] = tested on: immortalized human microglia; test: live-cell phagocytosis assay (bead uptake, Supplementary Fig 6e,f); format: cell-based; details: zileuton with N-AS in Aβ-treated human microglia
Procedure: Live-cell phagocytosis assays were performed according to previously described procedures with minor modifications. Briefly, in a glass bottom cell culture dish (SPL, 101350), adult SV40 immortalized human microglia cells (Applied Biologics Materials, T0251) were seeded for phagocytosis assay. […] After incubation, the microglia were treated with 0 or 2.5 μM N-AS (Sigma-Aldrich, 01912) at 37 °C for 2 h. FITC beads (Invitrogen) preopsonized in FBS (Gibco) were added at a concentration at 0.01% and then immediately observed using a laser scanning confocal microscope equipped with a live cell chamber system (FV3000, Olympus) for 2 h. Confocal images were collected every 5 min for 2 h and analyzed using the ImageJ software (National Institutes of Health).

In the case of CCCCCCCCCCCCC/C=C/[C@@H](O)[C@@H](N)COC(C)=O.O=C(O)C(F)(F)F [1-O-AS, (2S,3R,E)-1-Acetoxy-3-hydroxyoctadec-4-en-2-aminium trifluoroacetate], the “time to isomerization to N-AS” value [1] is reported as “less than 10 min”.
With CCCCCCCCCCCCC/C=C/[C@@H](OC(C)=O)[C@@H](N)CO.O=C(O)C(F)(F)F [3-O-AS, (2S,3R,E)-3-Acetoxy-1-hydroxyoctadec-4-en-2-aminium trifluoroacetate] the “time to isomerization to N-AS” value [1] was “less than 10 min”.
With Nc1ncnc2c1ncn2[C@@H]1O[C@H](COP(=O)(O)OP(=O)(O)OP(=O)(O)O)[C@@H](O)[C@H]1O [ATP] the “SphK1-mediated COX2 acetylation, in words” value (COX2) was “inhibited in a concentration dependent manner”.
For CC(c1cc2ccccc2s1)N(O)C(N)=O (centres unmarked) [zileuton, reference compound], the “LTB4, in words” value ([2]; zileuton treatment) was “LTB4 was not detected”, the “PGE2, in words” value ([2]; zileuton treatment) was “reduced PGE2” and the “production of N-AS-triggered SPMs, in words” value ([2]; zileuton with N-AS in Aβ-treated human microglia) was “inhibited”. The “N-AS-induced COX2 acetylation, in words” value [3] was “no significant” and the “restoration of phagocytic capacity, in words” value [4] was “inhibited”.
